Papp B→A and IC50 data for six compounds are collected here from US8987209B2, “N-carboxyalkyl-auristatin and the use thereof” (Seattle Genetics, Inc., priority 2010, dated 2015).

Broadly, the Papp B→A is how fast a substance crosses the layer from the basolateral side. Usually IC50 stands for the point on the concentration scale where inhibition reaches its midpoint.

Square brackets hold non-standard residues; d marks the D form. Peptide text beside a SMILES is read from it. * marks the point of attachment. NMeVal(N-(CH2)3COOH) = CC(C)[C@@H](C(=O)*)N(C)CCCC(=O)O; Dolaproine = CO[C@@H]([C@@H]1CCCN1)[C@@H](C)C(=O)O; Dil = CC[C@H](C)[C@H](NC)[C@@H](CC(=O)O)OC; X3 = CC(C)[C@@H](C(=O)*)N(C)CCCCCC(=O)O; Morpholide = C1CN(*)CCO1; X1 = O=C(NN*)c1ccccc1

Data set [1] is described as follows: Cell permeability, flux assay using Caco-2 cells. The conditions noted are these: human, basal to apical, 2 hours incubation. The data set is classed as in vitro ADME. The method, then:
B-5. Determination of Cell Permeability:
The cell permeability of a substance can be analyzed by means of in vitro tests in a flux assay using Caco-2-cells [M. D. Troutman and D. R. Thakker, Pharm. Res. 20 (8), 1210-1224 (2003)]. For this analysis the cells were cultured on 24 membrane filter plates for 15 to 16 days. In order to determine permeation the test substance in question was given either apical (A) to a HEPES buffer or basal (B) on the cells and incubated for 2 hours. The samples were withdrawn after 0 and 2 hours from the cis and trans compartments. The samples were separated by means of HPLC (Agilent 1200, Böblingen, Germany) using reverse-phase columns. The HPLC system was coupled to a triple quadropol mass spectrometer API 4000 (Applied Biosystems Applera, Darmstadt, Germany) via a turbo ion spray. The permeability was evaluated by means of the Papp value which was calculated with the help of the formula published by Schwab et al. [D. Schwab et al., J. Med. Chem. 46, 1716-1725 (2003)]. A substance was classified as active if the ratio of Papp (B-a) to Papp (A-B) was >2 or <0.5.
The permeability from B to A [Papp^(B-A)] is particularly important for toxophores which are being released intracellular: The lower the permeability the longer the residence time of the substance in the cell after intracellular release and, consequently, the more time available for interaction with the biochemical target (here: tubulin).

Data set [2] has as its system human renal carcinoma cell line 786-0. Briefly: Anti-proliferative effect on renal cell carcinoma 786-0 cell line (MTT assay). In kind it is cell-based. The note with it: Homo sapiens, 786-0 cells, incubation 48 to 96 hours, serum free medium or 2% FCS. The protocol:
B-1. Determination of Anti-proliferative Effects of Renal Cell Carcinoma 786-0 Cell Line:
A defined number of cells of the human renal carcinoma cell line 786-0 were cultured in a 96 well micro titer plate in rich medium (2500 or 7.000 cells/well) and then incubated over night at 37° C./5% CO2. After 18 hours the seed medium was replaced by a serum free medium or medium with 2% FCS. The treatment began with measuring out the respective test substances in varying concentrations (10^−5 M to 10^−14 M). Incubation times of between 48 hours and 96 hours were chosen. The proliferation was determined by means of the MTT assay (ATCC, Manassas, Va., USA, catalogue no. 30-1010K). After completion of incubation period the MTT reagent was incubated with the cells for 4 hours before lysis occurred over night by measuring out the detergent. The created stain was detected at 570 nm. The proliferation of the cells, which were treated identically to the other cells but without the test substance was defined as the 100% value. The data obtained from this test represent triple determinations and at least two experiments had been carried out independently of each other.

The compound `CC[C@H](C)[C@@H]([C@@H](CC(=O)N1CCC[C@H]1[C@H](OC)[C@@H](C)C(=O)N[C@@H](Cc1ccccc1)C(=O)OC)OC)N(C)C(=O)[C@@H](NC(=O)[C@H](C(C)C)N(C)CCCC(=O)O)C(C)C` [Example 7] ({NMeVal(N-(CH2)3COOH)}-V[Dil][Dolaproine]F-OMe) showed a Papp B→A at 2 h in data set [1] of 1.8 ×10⁻⁶ cm/s.

In data set [2], `CCOC(=O)[C@]1(NC(=O)[C@H](C)[C@@H](OC)[C@@H]2CCCN2C(=O)C[C@@H](OC)[C@H]([C@@H](C)CC)N(C)C(=O)[C@@H](NC(=O)[C@H](C(C)C)N(C)CCCC(=O)O)C(C)C)C[C@@H]1c1ccccc1` [Example 12, N-(3-carboxypropyl)-N-methyl-L-valyl-N-[(3R,4S,5S)-1-{(2S)-2-[(1R,2R)-3-{[(1S,2R)-1-(ethoxycarbonyl)-2-phenylcyclopropyl]amino}-1-methoxy-2-methyl-3-oxopropyl]pyrrolidin-1-yl}-3-methoxy-5-methyl-1-oxoheptan-4-yl]-N-methyl-L-valinamide] displayed a half-inhibitory concentration (IC50) of 13 nM. The same compound came in with a Papp B→A at 2 h in data set [1] of 1.5 ×10⁻⁶ cm/s.

Turning to `CC[C@H](C)[C@@H]([C@@H](CC(=O)N1CCC[C@H]1[C@H](OC)[C@@H](C)C(=O)N[C@@H](Cc1ccccc1)C(=O)NNC(=O)c1ccccc1)OC)N(C)C(=O)[C@@H](NC(=O)[C@H](C(C)C)N(C)CCCC(=O)O)C(C)C` [Example 14, (3R,4S,7S,10S)-3-(2-{(2S)-2-[(1R,2R)-3-{[(2S)-1-(2-benzoylhydrazino)-1-oxo-3-phenylpropane-2yl]amino}-1-methoxy-2-methyl-3-oxopropyl]pyrrolidin-1-yl}-2-oxoethyl)-4-[(2S)-butane-2-yl]-7,10-diisopropyl-5,11-dimethyl-6,9-dioxo-2-oxa-5,8,11-triazapentadecan-15-acid] ({NMeVal(N-(CH2)3COOH)}-V[Dil][Dolaproine]F-X1), the IC50 in data set [2] is 59 nM. For the same compound, the apparent permeability from basolateral to apical (Papp B→A) at 2 h in data set [1] amounted to 0.3 ×10⁻⁶ cm/s.

Take `CC[C@H](C)[C@@H]([C@@H](CC(=O)N1CCC[C@H]1[C@H](OC)[C@@H](C)C(=O)N[C@@]1(C(N)=O)C[C@@H]1c1ccccc1)OC)N(C)C(=O)[C@@H](NC(=O)[C@H](C(C)C)N(C)CCCC(=O)O)C(C)C` [Example 17, N-(3-carboxypropyl)-N-methyl-L-valyl-N-[(3R,4S,5S)-1-{(2S)-2-[(1R,2R)-3-{[(1S,2R)-1-carbamoyl-2-phenylcyclopropyl]amino}-1-methoxy-2-methyl-3-oxopropyl]pyrrolidin-1-yl}-3-methoxy-5-methyl-1-oxoheptan-4-yl]-N-methyl-L-valinamide]: the Papp B→A at 2 h in data set [1] stood at 0.2 ×10⁻⁶ cm/s.

Compound `CC[C@H](C)[C@@H]([C@@H](CC(=O)N1CCC[C@H]1[C@H](OC)[C@@H](C)C(=O)N[C@@H](Cc1c[nH]c2ccccc12)C(N)=O)OC)N(C)C(=O)[C@@H](NC(=O)[C@H](C(C)C)N(C)CCCCCC(=O)O)C(C)C` [Example 19] (X3-V[Dil][Dolaproine]W-NH2) came in with a Papp B→A at 2 h in data set [1] of 0.2 ×10⁻⁶ cm/s.

For the compound `CC[C@H](C)[C@@H]([C@@H](CC(=O)N1CCC[C@H]1[C@H](OC)[C@@H](C)C(=O)N[C@@H](Cc1ccccc1)C(=O)N1CCOCC1)OC)N(C)C(=O)[C@@H](NC(=O)[C@H](C(C)C)N(C)CCCC(=O)O)C(C)C` [Example 23, N-(3-carboxypropyl)-N-methyl-L-valyl-N-[(3R,4S,5S)-3-methoxy-1-{(2S)-2-[(1R,2R)-1-methoxy-2-methyl-3-{[(2S)-1-(morpholin-4-yl)-1-oxo-3-phenylpropane-2-yl]amino}-3-oxopropyl]pyrrolidin-1-yl}-5-methyl-1-oxoheptan-4-yl]-N-methyl-L-valinamide] ({NMeVal(N-(CH2)3COOH)}-V[Dil][Dolaproine]F-Morpholide), the basolateral-to-apical permeability (Papp B→A) at 2 h in data set [1] came out at 0.2 ×10⁻⁶ cm/s.
